Assay results published in patent US20240216372A1, “THERAPEUTICS FOR KELOIDS AND OTHER FIBROTIC DISORDERS” (Florida State University Research Foundation, Inc., priority 2022, published 2024).

What was measured:
[1] = tested on: keloid dermal fibroblasts; test: keloid fibroblast proliferation; type: cell-based, human; details: for sensitivity of keloid fibroblasts compared to normal HDFs: keloid fibroblasts versus normal HDFs; for effect on keloid fibroblast proliferation / sensitivity of keloid dermal fibroblasts to the drug (effective concentration range): patient-derived keloid dermal fibroblasts
[2] = tested on: Insulin-like Growth Factor 2 (IGF2) signaling; details: general statement, no test described; cited from earlier work
[3] = tested on: normal primary human dermal fibroblasts (HDFs); test: normal HDF proliferation; type: cell-based

SMILES: CNC(=O)Nc1ccc2c(c1)CC[C@@]21OC(=O)N(CC(=O)N(Cc2ccc(F)cc2)[C@@H](C)C(F)(F)F)C1=O [A485]
- sensitivity of keloid fibroblasts compared to normal HDFs [1]: much more sensitive

SMILES: CN(C)c1ccc2c(c1)OC(N)=C(C#N)C2c1cccc(C(F)(F)F)c1 (stereo not drawn) [Chromeceptin]
- effect on keloid fibroblast proliferation [1]: blocks keloid fibroblast proliferation
- sensitivity of keloid dermal fibroblasts to the drug (effective concentration range) [1]: sensitive
- effective range as inhibitor of IGF2 signaling [2]: low nanomolar range

SMILES: COc1cc(/C=C/C(=O)CC(=O)/C=C/c2ccc(O)c(OC)c2)ccc1O [Curcumin]
- sensitivity of keloid fibroblasts compared to normal HDFs [1]: much more sensitive

SMILES: O=C(O)C(=O)c1cn(Cc2ccccc2)c2ccc(-c3ccc(OC(F)(F)F)cc3)cc12 [Tiplaxtinin]
- sensitivity of keloid fibroblasts compared to normal HDFs [1]: preferentially blocks keloid fibroblast proliferation over normal HDF proliferation
- sensitivity of keloid dermal fibroblasts to the drug (effective concentration range) [1]: low micromolar range
- sensitivity / proliferation of normal HDFs [3]: not significantly sensitive

SMILES: COc1ccc(CCN(C)CCCC(C#N)(c2ccc(OC)c(OC)c2)C(C)C)cc1OC (stereo not drawn) [Verapamil]
- effect on keloid fibroblast proliferation [1]: inhibits the proliferation of keloid fibroblasts
